pEC50: −log10 of the molar value.
Molecular target: human APJ receptor (Homo sapiens (Human), UniProt P35414)
Assay: biochemical
Assay type: biochemical
Settings: [35S]GTPγS binding, membranes from CHO cells stably expressing human APJ receptor; read-out: Activity hAPJ SPA EC50 IP
Description: The human APJ receptor was cloned by polymerase chain reaction and the gene encoding the receptor was subcloned in pFLAG-CMV™-3 expression vector (Sigma, Saint Louis, Mo. USA) in-house at Amgen. A GTPγS binding assay was performed on membranes prepared from CHO cells stably expressing human APJ receptor. The optimum experimental conditions for the concentrations of GDP, MgCl2, and NaCl in the assay buffer were initially determined. The assay was performed in 9 μL assay buffer [20 mM HEPES, pH 7.5, 5 mM MgCl2, 100 mM NaCl and 0.1% (w/v) BSA], 1 μL of diluted test compound (starting with 0.75 mM, 2-fold serial dilution with DMSO, total 22 points), 10 μL of 18 µM GDP (final concentration of 3 μM GDP), 20 μL of […] membrane protein expressing human APJ receptor captured with WGA PS beads (final concentration of 5 μg per well), and 20 μL of 0.3 nM [^35S]GTPγS (final concentration is 0.1 nM [^35S]GTPγS)(Perkin Elmer Life and Analytical Sciences, Waltham USA).

Sequence of human APJ receptor (P35414 whole entry): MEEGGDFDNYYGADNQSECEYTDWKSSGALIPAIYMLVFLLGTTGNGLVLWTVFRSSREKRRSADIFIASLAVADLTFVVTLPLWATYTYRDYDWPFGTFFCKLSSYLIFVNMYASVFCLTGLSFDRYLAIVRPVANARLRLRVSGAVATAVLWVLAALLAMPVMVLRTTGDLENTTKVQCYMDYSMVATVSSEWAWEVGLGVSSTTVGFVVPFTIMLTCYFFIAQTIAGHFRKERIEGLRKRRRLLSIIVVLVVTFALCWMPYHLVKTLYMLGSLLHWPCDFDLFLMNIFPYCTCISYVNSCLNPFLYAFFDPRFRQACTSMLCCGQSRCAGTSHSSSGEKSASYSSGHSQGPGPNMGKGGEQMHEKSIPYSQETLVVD

With `COc1cccc(OC)c1-n1c(C[C@@H]2CCCO2)nnc1NS(=O)(=O)[C@@H](C)[C@H](C)c1ncc(Cl)cn1` (mixture of isomers) [Example 46.0, (2S,3R)-3-(5-chloro-2-pyrimidinyl)-N-(4-(2,6-dimethoxyphenyl)-5-((2R)-tetrahydro-2-furanylmethyl)-4H-1,2,4-triazol-3-yl)-2-butanesulfonamide and (2S,3R)-3-(5-chloro-2-pyrimidinyl)-N-(4-(2,6-dimethoxyphenyl)-5-((2S)-tetrahydro-2-furanylmethyl)-4H-1,2,4-triazol-3-yl)-2-butanesulfonamide] as the compound, how does the pEC50 read?
Its pEC50 is 6.48.

With `COc1cccc(OC)c1-n1c(C[C@@H]2CCS(=O)(=O)C2)nnc1NS(=O)(=O)[C@@H](C)[C@H](C)c1ncc(Cl)cn1` (mixture of isomers) [Example 47.0, (2S,3R)-3-(5-chloro-2-pyrimidinyl)-N-(4-(2,6-dimethoxyphenyl)-5-(((3R)-1,1-dioxidotetrahydro-3-thiophenyl)methyl)-4H-1,2,4-triazol-3-yl)-2-butanesulfonamide and (2S,3R)-3-(5-chloro-2-pyrimidinyl)-N-(4-(2,6-dimethoxyphenyl)-5-(((3S)-1,1-dioxidotetrahydro-3-thiophenyl)methyl)-4H-1,2,4-triazol-3-yl)-2-butanesulfonamide] as the compound, how does the pEC50 read?
The pEC50 was 7.15.

How did the pEC50 turn out when `COc1ncnc(OC)c1-n1c(NS(=O)(=O)[C@@H](C)[C@H](C)c2ncc(Cl)cn2)nnc1[C@@H](C)OC(C)C` (single isomer, unassigned) [Example 2.0, (2S,3R)-3-(5-chloro-2-pyrimidinyl)-N-(4-(4,6-dimethoxy-5-pyrimidinyl)-5-((1R)-1-(1-methylethoxy)ethyl)-4H-1,2,4-triazol-3-yl)-2-butanesulfonamide or (2S,3R)-3-(5-chloro-2-pyrimidinyl)-N-(4-(4,6-dimethoxy-5-pyrimidinyl)-5-((1S)-1-(1-methylethoxy)ethyl)-4H-1,2,4-triazol-3-yl)-2-butanesulfonamide] was run?
The pEC50 was 6.77.

`COc1ncnc(OC)c1-n1c(NS(=O)(=O)[C@@H](C)[C@H](C)c2ncc(Cl)cn2)nnc1[C@@H](C)OC(C)C` (single isomer, unassigned) [Example 3.0, (2S,3R)-3-(5-chloro-2-pyrimidinyl)-N-(4-(4,6-dimethoxy-5-pyrimidinyl)-5-((1R)-1-(1-methylethoxy)ethyl)-4H-1,2,4-triazol-3-yl)-2-butanesulfonamide or (2S,3R)-3-(5-chloro-2-pyrimidinyl)-N-(4-(4,6-dimethoxy-5-pyrimidinyl)-5-((1S)-1-(1-methylethoxy)ethyl)-4H-1,2,4-triazol-3-yl)-2-butane sulfonamide] was tested. Which pEC50 did it give?
Its pEC50 is 6.49.

`COc1ncnc(OC)c1-n1c(NS(=O)(=O)[C@@H](C)[C@H](C)c2ncc(Cl)cn2)nnc1[C@@H](C)OC` (single isomer, unassigned) [Example 4.0, (2S,3R)-3-(5-chloro-2-pyrimidinyl)-N-(4-(4,6-dimethoxy-5-pyrimidinyl)-5-((1R)-1-methoxyethyl)-4H-1,2,4-triazol-3-yl)-2-butanesulfonamide or (2S,3R)-3-(5-chloro-2-pyrimidinyl)-N-(4-(4,6-dimethoxy-5-pyrimidinyl)-5-((1S)-1-methoxyethyl)-4H-1,2,4-triazol-3-yl)-2-butanesulfonamide] was tested. Which pEC50 did it give?
The pEC50 was 6.57.

With `COc1ncnc(OC)c1-n1c(NS(=O)(=O)[C@@H](C)[C@H](C)c2ncc(Cl)cn2)nnc1[C@@H](C)OC` (single isomer, unassigned) [Example 5.0, (2S,3R)-3-(5-chloro-2-pyrimidinyl)-N-(4-(4,6-dimethoxy-5-pyrimidinyl)-5-((1R)-1-methoxyethyl)-4H-1,2,4-triazol-3-yl)-2-butanesulfonamide or (2S,3R)-3-(5-chloro-2-pyrimidinyl)-N-(4-(4,6-dimethoxy-5-pyrimidinyl)-5-((1S)-1-methoxyethyl)-4H-1,2,4-triazol-3-yl)-2-butanesulfonamide] as the compound, how does the pEC50 read?
Its pEC50 is 6.51.

How did the pEC50 turn out when `CC[C@@H](OC)c1nnc(NS(=O)(=O)[C@@H](C)[C@H](C)c2ncc(Cl)cn2)n1-c1c(OC)ncnc1OC` (single isomer, unassigned) [Example 6.0, (2S,3R)-3-(5-chloro-2-pyrimidinyl)-N-(4-(4,6-dimethoxy-5-pyrimidinyl)-5-((1R)-1-methoxypropyl)-4H-1,2,4-triazol-3-yl)-2-butanesulfonamide or (2S,3R)-3-(5-chloro-2-pyrimidinyl)-N-(4-(4,6-dimethoxy-5-pyrimidinyl)-5-((1S)-1-methoxypropyl)-4H-1,2,4-triazol-3-yl)-2-butanesulfonamide] was run?
Its pEC50 is 6.13.

How did the pEC50 turn out when `CC[C@@H](OC)c1nnc(NS(=O)(=O)[C@@H](C)[C@H](C)c2ncc(Cl)cn2)n1-c1c(OC)ncnc1OC` (single isomer, unassigned) [Example 7.0, (2S,3R)-3-(5-chloro-2-pyrimidinyl)-N-(4-(4,6-dimethoxy-5-pyrimidinyl)-5-((1R)-1-methoxypropyl)-4H-1,2,4-triazol-3-yl)-2-butanesulfonamide or (2S,3R)-3-(5-chloro-2-pyrimidinyl)-N-(4-(4,6-dimethoxy-5-pyrimidinyl)-5-((1S)-1-methoxypropyl)-4H-1,2,4-triazol-3-yl)-2-butanesulfonamide] was run?
The pEC50 was 6.44.

With `COc1ncnc(OC)c1-n1c(CC(C)(C)C)nnc1NS(=O)(=O)[C@@H](C)[C@H](C)c1ncc(Cl)cn1` [Example 1.0, (2S,3R)-3-(5-chloro-2-pyrimidinyl)-N-(4-(4,6-dimethoxy-5-pyrimidinyl)-5-(2,2-dimethylpropyl)-4H-1,2,4-triazol-3-yl)-2-butanesulfonamide] as the compound, how does the pEC50 read?
Its pEC50 is 6.62.

How did the pEC50 turn out when `COCc1nnc(NS(=O)(=O)[C@@H](C)[C@H](C)c2cnc(C)cn2)n1-c1c(OC)cccc1OC` [Example 8.0, (2S,3R)-N-(4-(2,6-dimethoxyphenyl)-5-(methoxymethyl)-4H-1,2,4-triazol-3-yl)-3-(5-methyl-2-pyrazinyl)-2-butanesulfonamide] was run?
The pEC50 was 6.59.

With `COCc1nnc(NS(=O)(=O)[C@@H](C)[C@H](C)c2cnc(C)cn2)n1-c1c(OC)ncnc1OC` [Example 9.0, (2S,3R)-N-(4-(4,6-dimethoxy-5-pyrimidinyl)-5-(methoxymethyl)-4H-1,2,4-triazol-3-yl)-3-(5-methyl-2-pyrazinyl)-2-butanesulfonamide] as the compound, how does the pEC50 read?
The pEC50 was 6.20.

`COCc1nnc(NS(=O)(=O)[C@@H](C)[C@H](C)c2ncc(Cl)cn2)n1-c1c(OC)ncnc1OC` [Example 11.0, (2S,3R)-3-(5-chloro-2-pyrimidinyl)-N-(4-(4,6-dimethoxy-5-pyrimidinyl)-5-(methoxymethyl)-4H-1,2,4-triazol-3-yl)-2-butanesulfonamide] was tested. Which pEC50 did it give?
Its pEC50 is 7.06.

How did the pEC50 turn out when `COc1cccc(OC)c1-n1c(NS(=O)(=O)[C@@H](C)[C@H](C)c2ncc(Cl)cn2)nnc1[C@@H](O)c1ccccc1` [Example 13.0, (2S,3R)-3-(5-chloro-2-pyrimidinyl)-N-(4-(2,6-dimethoxyphenyl)-5-((S)-hydroxy(phenyl)methyl)-4H-1,2,4-triazol-3-yl)-2-butanesulfonamide] was run?
Its pEC50 is 6.96.

With `COc1cccc(OC)c1-n1c(Cc2ccccc2)nnc1NS(=O)(=O)[C@@H](C)[C@H](C)c1ncc(Cl)cn1` [Example 14.0, (2S,3R)-N-(5-benzyl-4-(2,6-dimethoxyphenyl)-4H-1,2,4-triazol-3-yl)-3-(5-chloro-2-pyrimidinyl)-2-butanesulfonamide] as the compound, how does the pEC50 read?
Its pEC50 is 8.34.

How did the pEC50 turn out when `COc1cccc(OC)c1-n1c(Cc2cccnc2)nnc1NS(=O)(=O)[C@@H](C)[C@H](C)c1ncc(C)cn1` [Example 15.0, (2S,3R)-N-(4-(2,6-dimethoxyphenyl)-5-(3-pyridinylmethyl)-4H-1,2,4-triazol-3-yl)-3-(5-methyl-2-pyrimidinyl)-2-butanesulfonamide] was run?
The pEC50 was 6.74.

With `COc1cccc(OC)c1-n1c(NS(=O)(=O)[C@@H](C)[C@H](C)c2ncc(C)cn2)nnc1-c1cccc2c1CC(=O)N2` [Example 16.0, (2S,3R)-N-(4-(2,6-dimethoxyphenyl)-5-(2-oxoindolin-4-yl)-4H-1,2,4-triazol-3-yl)-3-(5-methylpyrimidin-2-yl)butane-2-sulfonamide] as the compound, how does the pEC50 read?
Its pEC50 is 6.92.

How did the pEC50 turn out when `COc1cccc(OC)c1-n1c(NS(=O)(=O)[C@@H](C)[C@H](C)c2ncc(C)cn2)nnc1-c1cccc2c1CC(=O)N2` [Example 17.0, (2S,3R)-N-(4-(2,6-dimethoxyphenyl)-5-(2-oxoindolin-4-yl)-4H-1,2,4-triazol-3-yl)-3-(5-methylpyrimidin-2-yl)butane-2-sulfonamide] was run?
The pEC50 was 6.46.

How did the pEC50 turn out when `COc1cccc(OC)c1-n1c(NS(=O)(=O)[C@@H](C)[C@H](C)c2ncc(C)cn2)nnc1[C@H](OC)c1ccccc1` [Example 18.0, (2S,3R)-N-(4-(2,6-dimethoxyphenyl)-5-((R)-methoxy(phenyl)methyl)-4H-1,2,4-triazol-3-yl)-3-(5-methyl-2-pyrimidinyl)-2-butanesulfonamide] was run?
The pEC50 was 6.62.

Same assay, conditions: read-out: Activity hAPJ SPA EC50 IP

With `COCc1nnc(NS(=O)(=O)[C@@H](C)[C@H](C)c2ncc(Cl)cn2)n1-c1c(OC)cccc1OC` [Example 10.0, (2S,3R)-3-(5-chloro-2-pyrimidinyl)-N-(4-(2,6-dimethoxyphenyl)-5-(methoxymethyl)-4H-1,2,4-triazol-3-yl)-2-butanesulfonamide] as the compound, how does the pEC50 read?
Its pEC50 is 7.82.

With `COCc1nnc(NS(=O)(=O)[C@@H](C)[C@H](OC)c2ncc(Cl)cn2)n1-c1c(OC)cccc1OC` [Example 12.0, (1R,2S)-1-(5-chloro-2-pyrimidinyl)-N-(4-(2,6-dimethoxyphenyl)-5-(methoxymethyl)-4H-1,2,4-triazol-3-yl)-1-methoxy-2-propanesulfonamide] as the compound, how does the pEC50 read?
The pEC50 was 8.32.
